{"source": "patent US20190350955A1", "about": "“METHODS AND PHARMACEUTICAL COMPOSITIONS FOR THE TREATMENT OF CARDIOMYOPATHIES” (INSERM (Institut National de la Sante et de la Recherche …, priority 2016, published 2019)", "type_in_all_cases": "in vivo, mouse", "key": {"SRF^HKO mice": {"system": "SRF^HKO mice", "test": "Echocardiography of SRF HKO mice on NR diet", "excerpt": "Transgenic mice. All experiments with animals conformed to the Directive 2010/63/EU of the European Parliament and were approved by the ethics committee Charles Darvin #5 (agreement 00369.01). SRF^HKO mice bear the tamoxifen-inducible α-MHC-MerCrMer transgene and the Siffloxed allele (Sf/Sf) as described previously (Parlakian et al. (2005). Temporally controlled onset of dilated cardiomyopathy through disruption of the SRF gene in adult heart. Journal 112, 2930-2939; Tritsch et al. (2013). An SRF/miR-1 axis regulates NCX1 and Annexin A5 protein levels in the normal and failing heart. Journal 98, 372-380). Transgenic mice have been bred for more than 20 generations in C57BL/6N background. The mice were housed in standard animal facility (CEF. Hôpital Pitié Salpétrière, agreement A-75-13-15, 75013 Paris), under a 12-h dark/light cycle. Tamoxifen (Sigma T5648) was administrated by i.p. injection at a dose of 0.7 mg diluted in 100 μl peanut oil at day (D) 0, D1 and D2. (Sf/Sf) littermates injected with tamoxifen at the same time than mutant were used as controls.\nSRF^HKO and control (Sf/Sf) mice were administered either rodent maintenance SAFE A04 diet containing 3.10% crude fat. 16.10% crude proteins. 26% starch and 1.9% sugar (Scientific Animal Food Engineering, Paris, France) or SAFE # A04 diet supplemented with NR. NR was provided by Chromadex under brand name NIAGEN (Irvine Calif. USA). The soft pellets were manually prepared every 5 days by mixing 1.65 g of NR into 500 g of powdered SAFE A04 diet and 235 ml of water to reach 2.24 mg of NR/g (wet weight). Control diet was prepared in the same way omitting NR. Mice had ad libitum access to food and water. Mice (average body weight 31.3±0.82 g, no difference between groups) consumed an average of 6 g of soft food per day, reaching a daily intake of 450 mg NR/kg. No difference in food intake was observed between SRF^HKO and control mice.\nEchocardiography was performed on lightly anesthetized mice given isoflurane (induction with 2% isoflurane 100% O2. and maintained with 0.5% isoflurance 100% O2). Non-invasive measurements of left ventricular dimensions were evaluated using Doppler echocardiography (Vivid 7 Dimension/Vivid7 PRO; GE Medical Systems) with a probe ultrasound frequency range of 9-14 MHz. The two-dimensionally guided time-motion recording mode (parasternal long-axis view) of the left ventricle (LV) provided the following measurements: diastolic and systolic septal (IVS) and posterior wall thicknesses (LVPW); internal end-diastolic (LVEDD) and end-systolic diameters (LVESD); and heart rate. Each set of measurements was obtained from the same cardiac cycle. At least 3 sets of measurements were obtained from 3 different cardiac cycles. LV fractional shortening (FS) was calculated using the formula: (LVEDD−LVESD)/LVEDD×100. LV myocardial volume (LVV), LV end-diastolic volume (EDV), and end-systolic volume (ESV) were calculated using a half-ellipsoid model of the LV. From these volumes, LV ejection fraction (EF) was calculated using, the formula: (EDV−ESV)/EDV×100. H/R ratio was calculated by the formula (PWThd+IVSThd)/LVEDd."}, "Lmna^H222P/H222P mice [1]": {"system": "Lmna^H222P/H222P mice", "test": "qPCR of cardiac remodeling markers Myh7, Nppa, Col1a2 in heart", "conditions": "NR diet 9 weeks vs chow-diet", "method": "(§1) Mice were bred in an accredited animal facility (accreditation number: C-75-13-08). All experiments on mice were approved by the Comité d'éthique en expérimentation animate Charles Darwin No 5. Mice Lmna^H222P/H222P were backcrossed 8 times to 129S2/SvPasOrlRj strain mice to obtain pure genetic background. Male mice used for the studies were maintained under a 12 h light/12 h dark cycle at constant temperature (23° C.) with free access to food and water. Nicotinamide riboside (NR) complementation: Animals at 17 weeks of age were fed for 9 weeks with either a chow diet (A04: Scientific Animal Food & Engineering) or a chow diet complemented with 0.25% of NR (kindly provided by ChromaDex, Inc. California) corresponding to a dose of 400 mg/kg/day for a mouse weighing 25 g eating 4 g of food per day. Nicotinamide (NAM) treatment: Animals at 17 weeks of age were injected intraperitoneally (IP) every two days (q.a.d.) for 9 weeks with either physiologic serum or physiologic serum added with NAM at 50 mg/ml corresponding to a dose of 500 mg/kg for a mouse weighing 25 g.\nTotal RNAs were extracted from around 5 mg of mouse heart using RNeasy Mini kit (Qiagen). RNAs integrity were controlled on the Bioanalyzer 2100 (Agilent). […] Relative mRNA transcript levels calculated using the 2^ΔCT method were normalized by comparison to housekeeping mRNA."}, "Lmna^WT/WT mice": {"system": "Lmna^WT/WT mice", "test": "Echocardiography in NR-diet wild type mice", "conditions": "whatever the diet and the course of the treatment", "method": "as §1, with “Nicotinamide (NAM) treatment: Animals at 17 weeks of age were injected intraperitoneally (IP) every two days (q.a.d.) for 9 weeks with either physiologic serum or physiologic serum added with NAM at 50 mg/ml corresponding to a dose of 500 mg/kg for a mouse weighing 25 g.” left out\nMouse transthoracic echocardiography was performed using an ACUSON 128XP/10 ultrasound with a 11 Mhz linear probe (Mountain View).MHz transducer applied to the chest wall. […] The intra ventricular septum (IVS), LV posterior wall (LVPW), LV diameter (LVD) in diastole and systole, the percentage of fractional shortening (FS) and the heart rate (HR) were measured from the mean of at least three separate cardiac cycles. […]"}, "Lmna^H222P/H222P mice [2]": {"system": "Lmna^H222P/H222P mice", "test": "Survival of Lmna H222P/H222P mice on NR diet", "method": "as §1\nFor survival analysis, Lmna^H222P/H222P mice were fed chow supplemented with 0.25% nicotinamide riboside when they were 17 weeks of age and continued until they suffered from significant distress or died. p≤0.001"}, "[3]": {"conditions": "NR diet, echocardiography D45 to D47"}}}
{"smiles": "NC(=O)c1ccc[n+]([C@@H]2O[C@H](CO)[C@@H](O)[C@H]2O)c1", "note": "[NR, nicotinamide riboside]", "values": [{"measurement": "LV ejection fraction (LVEF)", "setting": "SRF^HKO mice; NR diet 0.22% from D5, echocardiography D45 to D47, ± S.D, non-treated SRF HKO 48.1, control mice 73.5", "value": "64.8%±8.2"}, {"measurement": "LV contractile functions (LVEF and FS)", "setting": "SRF^HKO mice; NR diet, D45 to D47", "value": "clearly protected"}, {"measurement": "changes in stroke volume or cardiac output", "setting": "SRF^HKO mice; NR diet, D45 to D47", "value": "not significant"}, {"measurement": "dilatation of LV in systole and diastole", "setting": "SRF^HKO mice; NR diet, D45 to D47", "value": "fully protected"}, {"measurement": "reduction of the H/R ratio (eccentric remodeling)", "setting": "SRF^HKO mice; NR diet, D45 to D47", "value": "fully prevented"}, {"measurement": "thinning of the LV wall in systole and diastole", "setting": "SRF^HKO mice; NR diet, D45 to D47, more efficiently at posterior wall than interventricular septum", "value": "reduced the thinning"}, {"measurement": "LV mass index", "setting": "SRF^HKO mice; [3]", "value": "did not induce any change"}, {"measurement": "heart rate", "setting": "SRF^HKO mice; [3]", "value": "did not induce any change"}, {"measurement": "expression of Myh7, Nppa and Col1a2 (markers of cardiac remodeling)", "setting": "Lmna^H222P/H222P mice [1]", "value": "significant lowering"}, {"measurement": "cardiac structure and function by echocardiography", "setting": "Lmna^WT/WT mice", "value": "No difference"}, {"measurement": "mice that died over the course of the treatment protocol", "setting": "Lmna^H222P/H222P mice [2]; NR diet 400 mg/kg/day, 9 weeks from 17 weeks of age, 38% of chow-diet mice died", "value": "none"}, {"measurement": "age at which mice started to die", "setting": "Lmna^H222P/H222P mice [2]; pilot survival study, NR feeding from 17 weeks of age, chow-diet 30 weeks", "value": 38, "unit": "weeks"}, {"measurement": "mean of survival", "setting": "Lmna^H222P/H222P mice [2]; pilot survival study, NR feeding from 17 weeks of age, chow-diet 33 weeks", "value": 39, "unit": "weeks"}]}
